Assays:
Assay type in all cases: in vivo
[1] = tested on: Triticum aestivum (spring wheat); assay: Greenhouse postemergence visual injury, spring wheat (TRZAS)
Description: (§1) Seeds of the desired test plant species were planted in a 90:10% v/v (volume/volume) mixture of PRO-MIX® BX (Premier Tech Horticulture, Quakertown, PA, USA) and PROFILE® GREENS GRADE™ (Profile Products LLC, Buffalo Grove, IL, USA) planting mixture, which typically has a pH of 5.2 to 6.2 and an organic matter content of at least 50 percent, in plastic pots with a surface area of 103.2 square centimeters (cm^2). When required to ensure good germination and healthy plants, a fungicide treatment and/or other chemical or physical treatment was applied. The plants were grown for 7-36 days (d) in a greenhouse with an approximate 14-hour (h) photo-period which was maintained at about 23° C. during the day and 22° C. during the night. Nutrients and water were added on a regular basis and supplemental lighting was provided with overhead metal halide 1000-Watt lamps as necessary. The plants were employed for testing when they reached the second or third true leaf stage.
(§2) Emulsifiable concentrates of each of each pyridine carboxylate herbicide (Compound A or Compound B) were prepared at 100 grams acid equivalent per liter (g ae/L). An aliquot of each emulsifiable concentrate was placed in a 25 mL glass vial and diluted with an aqueous mixture of 1.25% (v/v) ACTIROB® B esterified rapeseed oil (Bayer Crop Science, Research Triangle Park, NC, USA) or MSO® Concentrate with LECI-TECH® methylated soybean oil (Loveland Products, Loveland, CO, USA) to obtain concentrated stock solutions at the highest application rate for each herbicide, based upon a 12 milliliter (mL) application volume at a rate of 187 liters per hectare (L/ha). The concentrated stock solutions were further diluted with an aqueous mixture of 1.25% v/v ACTIROB® B or MSO® Concentrate with LECI-TECH® to obtain stock solutions at reduced application rates for each herbicide. Spray solutions of the herbicide combinations (Compound A or Compound B plus safener) were prepared by adding weighed amounts or aliquots of the safener to the stock solutions of Compound A or Compound B to form 12-mL spray solutions in two-way combinations.
(§3) The spray solutions were applied to the plant material with an overhead Mandel track sprayer equipped with 8002E nozzles calibrated to deliver 187 L/ha over an application area of 0.503 square meters (m^2) at a spray height of 18 inches (43 centimeters (cm)) above the average plant canopy. Control plants were sprayed in the same manner with the solvent blank. All herbicide (component a) application rates are given as “g ae/ha” and all safener (component b) application rates are given as “g ai/ha.”
(§4) The treated plants and control plants were placed in a greenhouse as described above and watered by sub-irrigation to prevent wash-off of the test compounds. After 20-22 d, the condition of the test plants as compared with that of the control plants was determined visually and scored on a scale of 0 to 100 percent where 0 corresponds to no injury and 100 corresponds to complete kill.

[2] = tested on: Matricaria chamomilla (wild chamomile); assay: Greenhouse postemergence visual injury, wild chamomile (MATCH); settings: Compound A 20 g/ha, Example 1
Description: as §1, §2
(§5) The spray solutions were applied to the plant material with an overhead Mandel track sprayer equipped with 8002E nozzles calibrated to deliver 187 L/ha over an application area of 0.503 square meters (m^2) at a spray height of 18 inches (43 centimeters (cm)) above the average plant canopy. […]
as §4

[3] = tested on: Triticum aestivum (winter wheat); assay: Greenhouse postemergence visual injury, winter wheat (TRZAW)
Description: as §1, §2, §3, §4

[4] = tested on: Saccharum officinarum (sugarcane); assay: Greenhouse postemergence visual injury, sugarcane (SACOF); settings: Example 3
Description: as §1, §2, §3, §4

[5] = tested on: Amaranthus retroflexus (pigweed); assay: Greenhouse postemergence visual injury, pigweed (AMARE)
Description: as §1, §2, §3, §4

[6] = tested on: Cyperus esculentus (nutsedge); assay: Greenhouse postemergence visual injury, nutsedge (CYPES)
Description: as §1, §2, §3, §4

Zea mays (maize) = assay: Greenhouse postemergence visual injury, maize (ZEAMX)
Description: as §1, §2, §3, §4

[7] = tested on: Sorghum vulgare (sorghum); assay: Greenhouse postemergence visual injury, sorghum (SORVU); settings: Compound A 40 g/ha, Example 5
Description: as §1, §2, §3, §4

[8] = tested on: Oryza sativa (common rice); assay: Greenhouse postemergence visual injury, rice (ORYSA); settings: Compound A 20 g/ha, Example 6
Description: as §1, §2, §5, §4

[9] = tested on: Alopecurus myosuroides (blackgrass); assay: Greenhouse postemergence visual injury, blackgrass (ALOMY); settings: Compound A 20 g/ha, Example 6
Description: as §1, §2, §5, §4

[10] = tested on: Chenopodium album L. (common lambsquarters); assay: Greenhouse postemergence visual injury, common lambsquarters (CHEAL); settings: Compound A 20 g/ha, Example 6
Description: as §1, §2, §5, §4

[11] = tested on: Cirsium arvense (Canada thistle); assay: Greenhouse postemergence visual injury, Canada thistle (CIRAR); settings: Compound A 20 g/ha, Example 6
Description: as §1, §2, §5, §4

[12] = tested on: Digitaria sanguinalis (large crabgrass); assay: Greenhouse postemergence visual injury, large crabgrass (DIGSA)
Description: as §1, §2, §3, §4

[13] = tested on: Echinochloa crus-galli (barnyardgrass); assay: Greenhouse postemergence visual injury, barnyardgrass (ECHCG)
Description: as §1, §2, §3, §4

Kochia scoparia (kochia) = assay: Greenhouse postemergence visual injury, kochia (KCHSC); settings: Compound A 20 g/ha, Example 6
Description: as §1, §2, §5, §4

[14] = tested on: Kochia scoparia (herbicide-resistant kochia); assay: Greenhouse postemergence visual injury, herbicide-resistant kochia (KCHSC-R); settings: Compound A 20 g/ha, Example 6
Description: as §1, §2, §5, §4

[15] = tested on: Amaranthus palmeri (glyphosate-resistant Palmer amaranth); assay: Greenhouse postemergence visual injury, glyphosate-resistant Palmer amaranth (AMAPA-Gly); settings: Example 7
Description: as §1, §2, §5, §4

[16] = tested on: Ambrosia artemisiifolia (common ragweed); assay: Greenhouse postemergence visual injury, common ragweed (AMBEL); settings: Example 7
Description: as §1, §2, §5, §4

N#CCOC(=O)c1nc(-c2ccc3cc[nH]c3c2F)c(F)c(N)c1Cl [Compound A, cyanomethyl 4-amino-3-chloro-5-fluoro-6-(7-fluoro-1H-indol-6-yl)pyridine-2-carboxylate]
% visual injury, Ob ([1]; Compound A 20 g/ha, Example 1): 25% | % visual injury, Ob ([1]; Compound A 40 g/ha, Example 2): 23% | % visual injury, Ob ([1]; Compound A 40 g/ha, Example 4): 30% | % visual injury, Ob [2]: 50% | % visual injury, Ob ([3]; Compound A 20 g/ha, Example 6): 25% | % visual injury, Ob ([3]; Compound A 40 g/ha, Example 2): 25% | % visual injury, Ob ([4]; Compound A 5 g/ha): 18% | % visual injury, Ob ([4]; Compound A 10 g/ha): 48% | % visual injury, Ob ([4]; Compound A 20 g/ha): 55% | % visual injury, Ob ([4]; Compound A 40 g/ha): 60% | % visual injury, Ob ([5]; Compound A 20 g/ha, Example 6): 93% | % visual injury, Ob ([5]; Compound A 40 g/ha, Example 4): 100% | % visual injury, Ob ([5]; Compound A 40 g/ha, Example 5): 100% | % visual injury, Ob ([6]; Compound A 20 g/ha, Example 6): 30% | % visual injury, Ob ([6]; Compound A 40 g/ha, Example 4): 73% | % visual injury, Ob ([6]; Compound A 40 g/ha, Example 5): 73% | % visual injury, Ob (Zea mays (maize); Compound A 10 g/ha, Example 7): 48% | % visual injury, Ob (Zea mays (maize); Compound A 20 g/ha, Example 6): 13% | % visual injury, Ob (Zea mays (maize); Compound A 20 g/ha, Example 7): 60% | % visual injury, Ob (Zea mays (maize); Compound A 40 g/ha, Example 5): 55% | % visual injury, Ob [7]: 50% | % visual injury, Ob [8]: 10% | % visual injury, Ob [9]: 0% | % visual injury, Ob [10]: 88% | % visual injury, Ob [11]: 95% | % visual injury, Ob ([12]; Compound A 10 g/ha, Example 7): 28% | % visual injury, Ob ([12]; Compound A 20 g/ha, Example 6): 30% | % visual injury, Ob ([12]; Compound A 20 g/ha, Example 7): 40% | % visual injury, Ob ([13]; Compound A 10 g/ha, Example 7): 100% | % visual injury, Ob ([13]; Compound A 20 g/ha, Example 6): 85% | % visual injury, Ob ([13]; Compound A 20 g/ha, Example 7): 100% | % visual injury, Ob (Kochia scoparia (kochia)): 97% | % visual injury, Ob [14]: 90% | % visual injury, Ob ([15]; Compound A 10 g/ha): 100% | % visual injury, Ob ([15]; Compound A 20 g/ha): 100% | % visual injury, Ob ([16]; Compound A 10 g/ha): 100% | % visual injury, Ob ([16]; Compound A 20 g/ha): 100%

Reference: patent US12029217B2, “Safened compositions comprising pyridine carboxylate herbicides and isoxadifen” (Corteva Agriscience LLC, priority 2018, dated 2024)
